# Laboratory results from US20010001101A1, “Phenanthroline derivatives” (Zeneca Limited, priority 1997, published 2001).
# Experiments:
# [1] = test system: granulation tissue in wound chamber; test: in vivo wound chamber model; set-up: species or system rat; details: injected into chamber daily, day 7-14 treatment; for response vs control in vivo at 0.01 mg / response vs control in vivo at 0.05 mg: Rattus norvegicus, read-out: Mean Collagen content (% of Control) On Day 14
# Procedure: (e) An in vivo wound chamber model involving the measurement of histological changes in granulation tissue. The test compounds were tested in rats according to the procedures generally described in Schilling et al., Surgery 46(4):702-710 (1959), Hunt et al., Am. J. Surgery 114:302-307 (1967), and Grotendorst et al., J. Clin Inves. 76:2323-2329 (1985). More specifically, stainless wire mesh cylinders were implanted subcutaneously under the back skin of rats (two chambers per animal). The compounds of the present invention were then dissolved in DMSO and injected into each chamber on a daily basis at various concentrations from either day 0-14 or day 7-14. On day 14, the chambers were collected and the granulation tissues contained within the chambers were collected for biochemical (collagen content) or histological evaluation.
# Following the in vivo wound chamber model described above, fourteen of the claimed compounds tested to determine the effectiveness of the claimed compounds in inhibiting collagen deposition in the wound chamber.
# [2] = test system: dermal incisional wound; test: dermal wound healing, rat incisional model; type: in vivo; details: compared to control
# Procedure: FIG. 6 illustrates the tensile strength on dermal incisional wound on day 7 after oral treatment of Compound 3 and Compound 12.
# FIG. 7 illustrates the tensile strength of incisional wound after local injections of Compound 12.
# (§1) The effectiveness of the compounds in dermal wound healing was tested using two wound healing models—rat punch model and rat incisional model—as described above.
# [3] = test system: dermal punch wound; test: dermal wound healing, rat punch model; type: in vivo; details: compared to control
# Procedure: FIG. 5 illustrates wound area after treatment of Compound 3 in the dermal punch model.
# as §1
Structure (SMILES),melting point [°C],response vs control in vivo at 0.01 mg ([1]; 10 μg dosage) [%],response vs control in vivo at 0.05 mg ([1]; 50 μg dosage) [%],other results
"CN(Cc1ccc(F)cc1)C(=O)c1cnc2c3c(ccc2c1)C(=O)C([N+](=O)[O-])C=N3 (centres unmarked) [Example VII, 8-[N-(4-fluorobenzyl)-N-methylcarbamoyl]-3-nitro-4-oxo-3,4-dihydro-1,10-phenanthroline]",294 to 296,,,
"CCOC(=O)C1C=Nc2c(ccc3c(N(C)C)c(C(=O)N(C)Cc4ccccc4)cnc23)C1=O (centres unmarked) [Example XV, 8-(N-benzyl-N-methylcarbamoyl)-7-dimethylamino-3-ethoxy-carbonyl-4-oxo-3,4-dihydro-1,10-phenanthroline]",169 to 170,,,
"O=C1c2ccc3cccnc3c2N=CC1S(=O)(=O)CC(F)(F)F (centres unmarked) [Example VI, 3-(2,2,2-trifluoroethyl-sulfonyl)-4-oxo-3,4-dihydro-1,10-phenanthroline]",272 to 274,,,
"CN(Cc1ccccc1)C(=O)c1cnc2c3c(c(F)cc2c1)C(=O)C(C#N)C=N3 (centres unmarked) [Example IX, 8-(N-benzyl-N-methylcarbamoyl)-3-cyano-5-fluoro-4-oxo-3,4-dihydro-1,10-phenanthroline]",267 to 269,,,
"CCOC(=O)C1C=Nc2c(c(OC)cc3cccnc23)C1=O (centres unmarked) [Compound 14, 3-ethoxycarbonyl-4-oxo-5-methoxy-3,4-dihydro-1,10-phenanthroline]",,72.2,70.3,tensile strength of wound [2]: reduced tensil strength; healing time [3]: increased healing time
"O=C1c2ccc3cc(C(=O)N4CCN(Cc5ccccc5)CC4)cnc3c2N=CC1[N+](=O)[O-] (centres unmarked) [Compound 10, 3-nitro-8-(4-benzylpiperazine-ylcarbonyl)-4-oxo-3,4-dihydro-1,10-phenanthroline]",,,,Mean Collagen content (% of Control) On Day 14 ([1]; 10 μg dosage): 94.81 % of Control; Mean Collagen content (% of Control) On Day 14 ([1]; 50 μg dosage): 76.54 % of Control
"Cc1cc2cc(C(=O)N(C)Cc3ccccc3)cnc2c2c1C(=O)C(C(=O)O)C=N2 (centres unmarked) [Compound 5, 3-carboxy-8-(N-benzyl-N-methylcarbamoyl)-5-methyl-4-oxo-3,4-dihydro-1,10-phenanthroline]",,99.1,80.9,
"O=C(O)C1C=Nc2c(ccc3cc(O)cnc23)C1=O (centres unmarked) [Compound 7, 3-carboxy-8-hydroxy-4-oxo-3,4-dihydro-1,10-phenanthroline]",,81.9,74.5,
"CN(Cc1ccc(F)cc1F)C(=O)c1cnc2c3c(ccc2c1)C(=O)C(C(=O)O)C=N3 (centres unmarked) [Compound 3, 3-carboxy-8-(N-methyl-N-{2,4-difluorobenzyl}carbamoyl)-4-oxo-3,4-dihydro-1,10-phenanthroline]",,108,79.8,
"O=C(O)C1C=Nc2c(ccc3cc(C(=O)N4CCc5ccccc5C4)cnc23)C1=O (centres unmarked) [Example XIV, 3-carboxy-4-oxo-8-(1,2,3,4-tetrahydroisoquinolin-2-ylcarbonyl)-3,4-dihydro-1,10-phenanthroline]",171 to 182,,,
"O=C(O)C1C=Nc2c(c(Cl)cc3cccnc23)C1=O (centres unmarked) [Compound 2, 5-chloro-3-carboxy-4-oxo-3,4-dihydro-1,10-phenanthroline]",,91.7,82.7,
"CCOC(=O)c1cnc2c3c(ccc2c1Cl)C(=O)C(C(C)=O)C=N3 (centres unmarked) [Example X, 3-acetyl-7-chloro-8-ethoxycarbonyl-4-oxo-3,4-dihydro-1,10-phenanthroline]",288 to 290,,,
"O=C(O)C1C=Nc2c(cc(Cl)c3cccnc23)C1=O (centres unmarked) [Compound 9, 3-carboxy-6-chloro-4-oxo-3,4-dihydro-1,10-phenanthroline]",,80.3,79.9,
"N#CC1C=Nc2c(ccc3cccnc23)C1=O (centres unmarked) [Compound 1, 3-cyano-4-oxo-3,4-dihydro-1,10-phenanthroline]",,110,112,
"CCCN(CC)C(=O)c1cnc2c3c(ccc2c1)C(=O)C([N+](=O)[O-])C=N3 (centres unmarked) [Compound 6, 3-nitro-8-(N-ethyl-N-propylcarbamoyl)-4-oxo-3,4-dihydro-1,10-phenanthroline]",,58.8,51.1,
"O=C1c2ccc3cccnc3c2N=CC1S(=O)(=O)C(F)(F)F (centres unmarked) [Compound 11, 3-trifluoromethylsulfonyl-4-oxo-3,4-dihydro-1,10-phenanthroline]",,90.8,80.8,
"O=C(OCCN1CCOCC1)C1C=Nc2c(ccc3cccnc23)C1=O (centres unmarked) [Compound 13, 3-(2-{morpholino}ethoxycarbonyl)-4-oxo-3,4-dihydro-1,10-phenanthroline]",,95.5,84.3,
"CN(Cc1ccccc1)C(=O)c1cnc2c3c(ccc2c1)C(=O)C(C#N)C=N3 (centres unmarked) [Compound 4, 3-cyano-8-(N-benzyl-N-methylcarbamoyl)-4-oxo-3,4-dihydro-1,10-phenanthroline]",,81.1,66,
"COCCOCCOC(=O)C1C=Nc2c(ccc3cccnc23)C1=O (centres unmarked) [Compound 8, 3-[2-(2-methoxyethoxy)ethoxycarbonyl]-4-oxo-3,4-dihydro-1,10-phenanthroline]",164 to 165,114,92.5,
